In patent US7214494B2, “Method of screening for substance preventing or treating diseases in association with malfunction of IL-6 family cytokine receptor malfunction” (Saten Pharmaceutical Co., Ltd., priority 2000, dated 2007):

Tested on: arthritis in gp130^F759/F759 mice
Assay: Screening test for anti-arthritis agents in gp130F759/F759 mice
Type: in vivo, mouse
Details: for arthritis score: gp130^F759/F759 mice developing arthritis, methotrexate 0.4 mg/kg orally five days in a week from age of 9 months
Procedure: gp130^F759/F759 mice or mice obtained by backcrossing of the gp130^F759/F759 mice (gp130^F759/F759-related mice) were used as a model mouse. A test compound of antirheumatic drugs such as bucilamine and methotrexate, nonsteroidal anti-inflammatory drugs such as diclofenac, or steroidal drugs such as dexamethasone was administered. The administration was conducted before the onset of immune disorders or arthritis for screening of prophylactic drugs, whereas after the observation of visible arthritis for screening of therapeutic drugs. The following is to illustrate the screening test for anti-arthritic agents using methotrexate as a test compound, and screening tests for other compounds would be conducted according to a similar manner to the following.
Methotrexate was administered orally at a dose of 0.4 mg/kg to the mice at the aged of 9 months for five days in a week. […] The severity of arthritis was scored based on restricted range of motion, swelling and flare of digit joints, and the presence or absence of rigidity. The mice whose arthritis conditions were observed constantly for two weeks or more were estimated as developed animal, and incident and severity were determined with time course.

In the case of `CN(Cc1cnc2nc(N)nc(N)c2n1)c1ccc(C(=O)N[C@@H](CCC(=O)O)C(=O)O)cc1` [methotrexate], the arthritis score (aged 48 weeks (12-month-old), control 4.33±1.86) is reported as 1.33±0.33, the arthritis score (aged 53 weeks, control 4.67±0.67) is reported as 0.67±0.33 and the “effect on arthritis in the mouse model” value (gp130^F759/F759 mice, 0.4 mg/kg orally) is reported as “inhibits the arthritis”.
